From patent US7566808B2, “Management of ophthalmologic disorders, including macular degeneration” (President and Fellows of Harvard College, priority 2004, dated 2009)

How the values were obtained:
Sprague Dawley rats = conditions: reference [24]; cited from earlier work
[1] = system: bovine retinal pigment epithelial membrane system (11-cis-retinol formation); experiment: 11-cis-retinol formation in RPE membranes (IMH activity / RPE65 function); assay type: biochemical; conditions: 60 μM, data not shown
Procedure: A control reaction mixture without any inhibitor was also incubated at room temperature for 15 min. At the end of the 15 min incubation, all-trans-retinol [11-12-^3H2] (0.2 μM) was added to the reaction mixtures (100 mM Tris pH 8.0, […] of RPE protein, 0.2% BSA 100 μM of DPPC, 1 mM of DTT and 0.2 μM all-trans-retinol [11-12-^3H2]) and incubated at room temperature for 30 min. At the end of this 30 minutes of incubation, an aliquot of the reactions were quenched to verify the equal addition of all-trans-retinol [11,12-^3H2] and the effect of these inhibitors on LRAT. After this the control reaction mixture was incubated with atRA (60 & 6 μM), 13cRA (60 & 6 μM) or 4-HPR (60 & 6 μM) for 15 min. Now all the reaction mixtures were incubated with 30 μM of apo-rCRALBP (100 mM Tris pH 8.0, 7.7 μg of RPE protein, 0.2% BSA 100 μm of DPPC, 1 mM of DTT 30 μM apo-rCRALBP and 0.2 μM all-trans-retinol [11-12-^3H2]) at 37° C. for 30 minutes. At the end of this incubation period the 200 μL reaction mixture was quenched by the addition of 750 μL ice cold methanol after which 100 μL of 1M sodium chloride solution was added, and 500 μl hexane (containing butylated hydroxy toluene at 1 mg/mL) was added to effect extraction of the retinoids. The retinoids were analyzed as previously described (27). The amount of 11-cis-retinol formed was used as a measurement of IMH activity. All experiments were performed in triplicate and the average values of these measurements were used for analysis.
A control reaction mixture without any inhibitor was also incubated at room temperature for 15 min. At the end of the 15 min incubation, all-trans-retinol [11-12-^3H2] (0.2 μM) was added to the reaction mixtures (100 mM Tris pH 8.0, 76.7 μg of RPE protein, 0.2% BSA 100 μM of DPPC, 1 mM of DTT and 0.2 μM all-trans-retinol [11-12-^3H2]) and incubated at room temperature for 30 min. […] The retinoids were analyzed as previously described (27). […]

CC1=C(/C=C/C(C)=C/C=C/C(C)=C\C(=O)O)C(C)(C)CCC1 [13-cis-retinoic acid, reference compound]
inhibition of 11-cis-retinal regeneration after bleaching (literature) (Sprague Dawley rats): approximately 4 fold
inhibition of 11-cis-retinol formation, membranes pre-incubated with vitamin A before inhibitor [1]: not susceptible to inhibition
